Series [1] deals with MCF-7 subline made resistant to tamoxifen in culture (MCF-7/Tam xenografts). The series is described as follows: Human breast cancer xenograft assay, tamoxifen-resistant MCF-7 subline. The settings on record: E2-supplemented SCID mice; peptide 1 μg i.p. twice a day, tamoxifen 50 μg i.p. once a day; day 30. The class given is in vivo. The protocol:
FIGS. 9a and 9b illustrate the effect of AFP-derived peptide on growth of estrogen-receptor-positive MCF-7 and MCF-7/Tarn human breast cancer xenografts. Tumors were implanted as described in Materials and Methods. Estrogen (●) was provided via a slow-release pellet of estradiol (E2) implanted s.c. Peptide (▴) was given twice a day i.p. at a dose of 1 μg per injection. […] Tumor volumes in each mouse were measured at the time of tumor implantation, again at day 15 after tumor implantation during survival laparotomy and again at day 30 after tumor implantation during necropsy. There was a minimum of 5 mice per group.
Cell Lines. T47D and MDA-231 human breast cancer cell lines were purchased from the American Type Culture Collection (Manassas, Va.). […]
(§1) Human Breast Cancer Xenograft Assay. […] Tumor growth was monitored during survival laparotomy at 10 day intervals by measurement of the diameters of the short (d) and long axes (D) of each tumor, using a dissecting microscope equipped with an ocular micrometer. Tumor volumes were calculated using the formula (π/6) (d)^2 D, assuming the tumor shape to be an ellipsoid of revolution around its long axis (D). […] Mean tumor volume±standard error in each group was calculated for display of growth curves. […]

Series [2] deals with immature mouse uterus. The series is described as follows: Uterotrophic effect of test agent alone on immature mouse uterus. The settings on record: agent alone i.p.; peptide up to 10 μg/mouse.
Protocol: Various doses indicated on the abscissa of each test agent were injected i.p. Twenty-two hours later uteri were harvested and weighed. Mean normalized uterine weights (mg uterine weight/g mouse body weight) for each group are shown on the ordinate. In FIG. 13b, Pep (1 μg) or vehicle (saline, 0.2 ml) were injected i.p. One hour later E2 (0.5 μg) or Tam (1.0 μg) were injected i.p. Twenty-two hours later uteri were harvested and weighed.
A bioassay for anti-estrotrophic activity was performed using an immature mouse uterine growth assay (22). Swiss/Webster female mice, 6–8 g in body weight (13–15 days old), were obtained from Taconic Farms (Germantown, N.Y.). […] In a typical experiment, each group received two sequential intraperitoneal injections spaced one hour apart. Test material or vehicle control for that material was contained in the first injectant. Estradiol (E2) or vehicle control for E2 was contained in the second injectant. Twenty-two hours after the second injection, uteri were dissected, trimmed free of mesenteries, and immediately weighed. […] Experiments employed a minimum of five mice per group, and the mean normalized uterine weight±standard error for each group was calculated. Percent growth inhibition in a test group was calculated from the normalized uterine wet weights as described below. […]
For series [3], the system named is estrogen-receptor-negative MDA-MB-231 human breast cancer xenografts. The series can be described thus: Human breast cancer xenograft assay, MDA-MB-231. The class given is in vivo. The settings on record: SCID mice, peptide 1 μg i.p. twice a day, tamoxifen 50 μg i.p. once a day, 30-day observation. (In general: A xenograft is tissue or cells of one species grown in another, often human tumour cells in immunodeficient mice.)

Series [4] has as its system MCF-7 human breast cancer xenografts. The series is described as follows: Human breast cancer xenograft assay, MCF-7. The class given is in vivo. The settings on record: E2-supplemented SCID mice; peptide 1 μg i.p. twice a day, tamoxifen 50 μg i.p. once a day; 30-day observation. The protocol:
FIG. 5 illustrates the anti-estrotrophic activity of hydroxyproline-substituted linear peptide against MCF-7 human breast cancer xenografts. There were five to eight replicate mice per treatment group. Estrogen was provided via a slow release pellet implanted subcutaneously. Peptide was given twice a day i.p. at a dose of 1 μg per mouse. Tumor volumes in each mouse were measured at the time of tumor implantation and at 10-day intervals thereafter during survival laparotomies.
FIGS. 9a and 9b illustrate the effect of AFP-derived peptide on growth of estrogen-receptor-positive MCF-7 and MCF-7/Tarn human breast cancer xenografts. Tumors were implanted as described in Materials and Methods. […] Tumor volumes in each mouse were measured at the time of tumor implantation, again at day 15 after tumor implantation during survival laparotomy and again at day 30 after tumor implantation during necropsy. […]
as §1

The test system of series [5] is estrogen-receptor-positive T47D human breast cancer xenografts. The series is described as follows: Human breast cancer xenograft assay, T47D. The class given is in vivo. The settings on record: E2-supplemented SCID mice; peptide 1 μg i.p. twice a day; 30-day observation.
Series [6] relates to MCF-7 human breast cancer xenografts. The settings on record: Bennett et al. 1998; cited from earlier work.
The test system of series [7] is E2-stimulated growth of immature mouse uterus. The series can be described thus: Immature mouse uterine growth assay (anti-estrotrophic activity). The class given is in vivo. The settings on record: for inhibition of the uterotrophic effect of estradiol: Pep 1 μg i.p. one hour before E2 0.5 μg i.p., uteri weighed 22 h later (FIG. 13b); for optimal dose for inhibition of estrogen-stimulated growth of mouse uterus: i.p., biphasic dose-response (FIG. 1a). The protocol: FIGS. 1a and 1b illustrate the anti-uterotrophic activity of octapeptide, SEQ ID NO: 2, […], measured in the immature mouse uterine growth assay. Peptide or vehicle control was injected i.p. into immature female Swiss mice. One hour later 0.5 μg of E2 vehicle control was injected i.p. into these mice. Twenty-two hours later, uteri were dissected and weighed. Percent inhibition of E2-stimulated growth of uterus by peptide was calculated as described in Materials and Methods. There were five to eight replicate mice per treatment group.
(§2) Immature Mouse Uterine Growth Assay.
Differences between groups were evaluated, employing the non-parametric Wilcoxon Sum of Ranks test (one-sided). In all cases, growth inhibitions that were greater than 25% were significant at p≦0.05.

The nature of series [8]: Preliminary pharmacokinetic studies in mice. The series is classed as in vivo.
Series [9] deals with tamoxifen-stimulated growth of immature mouse uterus. The series is described as follows: Inhibition of tamoxifen-stimulated growth of immature mouse uterus. The series is classed as in vivo. The settings on record: Pep 1 μg i.p. one hour before Tam 1.0 μg i.p., uteri weighed 22 h later.
Text: as §2

In series [10] the target is T1, estrogen receptor (Oryctolagus cuniculus, UniProt G1SML6).
T1 sequence (G1SML6 1-598): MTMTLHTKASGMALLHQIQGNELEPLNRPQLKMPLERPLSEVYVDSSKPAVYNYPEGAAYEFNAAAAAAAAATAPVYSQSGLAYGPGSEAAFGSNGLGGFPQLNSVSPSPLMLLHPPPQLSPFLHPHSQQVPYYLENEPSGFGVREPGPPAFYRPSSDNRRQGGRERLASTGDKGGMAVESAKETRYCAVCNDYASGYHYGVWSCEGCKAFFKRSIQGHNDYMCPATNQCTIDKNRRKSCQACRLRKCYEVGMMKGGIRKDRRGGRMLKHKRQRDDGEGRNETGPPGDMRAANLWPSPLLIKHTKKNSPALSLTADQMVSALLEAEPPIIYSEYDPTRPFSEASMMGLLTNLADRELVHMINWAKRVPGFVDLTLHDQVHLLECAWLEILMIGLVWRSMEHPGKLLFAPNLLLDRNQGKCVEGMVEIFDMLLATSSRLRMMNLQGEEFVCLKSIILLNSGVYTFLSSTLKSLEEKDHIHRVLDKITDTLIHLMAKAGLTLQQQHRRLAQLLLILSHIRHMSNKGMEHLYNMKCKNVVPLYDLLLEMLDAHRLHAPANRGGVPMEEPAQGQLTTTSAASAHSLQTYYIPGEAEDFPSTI
The series can be described thus: Assessment of estrogen receptor antagonism ([3H]estradiol binding, rabbit uterine cytosol). The protocol:
(§3) Rabbit uterine cytosol was used as a source of estrogen receptor.
as §3
Assessment of Estrogen Receptor Antagonism. Commercially obtained rabbit uteri (Pel-Freez Biological, Rogers, Ark.) were used as a source of estrogen receptor. […] Total count tubes received 20 μl of [3H]estradiol and 180 μl of assay buffer. After incubation overnight at 4° C., all but the total count tubes received 300 μl of dextran-coated charcoal suspension; tubes were agitated for 15 min and then centrifuged (1,000×g) for 15 min. Supernatants were decanted into counting vials, scintillant was added, and protein-bound tritium was determined by liquid scintillation counting.

“Also recorded” adds a separate entry of the source. Square brackets hold non-standard residues; d marks the D form. Ends that are not written are not given here. Hyp = O=C(O)[C@@H]1C[C@@H](O)CN1

On to `CC/C(=C(\c1ccccc1)c1ccc(OCCN(C)C)cc1)c1ccccc1` [tamoxifen, reference compound], for which the “effect on growth (tumor volume vs E2 alone) of tamoxifen-resistant MCF-7 subline xenografts” value in series [1] is recorded as “resistant to tamoxifen in vivo; also recorded: only minimally effective”. Besides, the “uterotrophic effect on immature mouse uterus” value in series [2] is given as “stimulate the growth of the immature mouse uterus”. Further, the “effect on growth of MDA-MB-231 xenografts” value in series [3] was “Neither peptide nor tamoxifen were effective; also recorded: did not affect the growth”. Further, the “effect on growth (tumor volume vs E2 alone) of MCF-7 xenografts” value in [4] is reported as “prevented growth; also recorded: no increase in tumor volume”. The “effect on growth (tumor volume vs E2 alone) of T47D xenografts” value in series [5] is “prevented growth”. For the same compound, in [6], the “effect on MCF-7 breast cancer xenograft growth in an earlier study” value is reported as “shown to stop MCF-7 breast cancer xenograft growth”.

“EMTOVNOG (EMT[Hyp]VN[Hyp]G; listed as Homo sapiens) [SEQ ID NO: 4]”: the “inhibition of the uterotrophic effect of estradiol” value in series [7] (listed as Pep) was “significantly different”; in [7] (listed as peptide) it was “inhibited”. Moreover, in series [1], the “effect on growth (tumor volume vs E2 alone) of tamoxifen-resistant MCF-7 subline xenografts” value is given as “completely prevented the xenograft growth; also recorded: completely stopped the growth”. The “effect on growth of MDA-MB-231 xenografts” value in series [3] is “Neither peptide nor tamoxifen were effective; also recorded: no effect on the growth”; in series [3] (listed as AFP-derived peptide), “no differences in tumor volumes between any of the groups”. The biological half-life result in series [8] is recorded as “two to three”. In addition, the “inhibition of the uterotrophic effect of tamoxifen” value in [9] is “significantly inhibited”; in series [9] (listed as peptide), “inhibited”. In addition, the “effect on growth (tumor volume vs E2 alone) of MCF-7 xenografts” value in series [4] is “prevented growth; also recorded: no significant increase in tumor volume”. For the same compound, in [5], the “effect on growth (tumor volume vs E2 alone) of T47D xenografts” value is “completely prevented tumor growth”. Also, the “competition/interference with estrogen binding to the estrogen receptor” value in [10] (cell-free system, no concentration stated) is “does not interfere”. In addition, the “interference with E2 binding to ER” value in series [10] (peptide concentration range of 10^−10M to 10^−5M) was “no interference”.

On to “EMTPVNPG (listed as Homo sapiens) [SEQ ID NO: 6, amino acids 472–479 of alpha-fetoprotein]”, for which, in series [7], the “optimal dose for inhibition of estrogen-stimulated growth of mouse uterus” value is on record as approximately 1 μg/mouse and the “biological activity of stored inactive peptide after brief treatment with 4M urea” value was “regenerated”.

Regarding “QMTPVNPG (listed as Homo sapiens) [SEQ ID NO: 2]”, the “% Inhibition of E2-Stimulated Growth of Immature Mouse Uterus ± SE” value in series [7] (Storage Time: Fresh, 1 μg peptide i.p.) is 38 ± 3%; in [7] (Stored over 1 year (lyophilized, −20° C.), 1 μg peptide i.p.) it was 0 ± 2%; in series [7] (after Urea Treatment (4 M urea, room temperature, one hour) of agent II (stored over 1 year) or IV (fresh), 1 μg i.p.) it was 34 ± 4%. For the same compound, the “anti-estrotrophic activity after storage (shelf-life)” value in [7] (after five weeks of storage at −20° C. lyophilized, 1 μg per mouse (FIG. 1b)) is “diminished to insignificant levels”. Moreover, in series [7], the “optimal dose for inhibition of estrogen-stimulated growth of mouse uterus” value is recorded as 1 μg/mouse. The “biological activity of higher molecular weight gel-filtration fraction of aged peptide” value in [7] (left side of peak (FIG. 2b), 1 μg i.p.) was “biologically inactive”. In addition, in series [7] (right side of peak (FIG. 2b), 1 μg i.p.), the “biological activity of lower molecular weight gel-filtration fraction of aged peptide” value is “active”. In addition, the “biological activity of aged peptide” value in series [7] (stored in the lyophilized state at −20° C. for over one year) is “completely biologically inactive”. In addition, the “biological activity of stored inactive peptide after brief treatment with 4M urea” value in series [7] is recorded as “restored its biological activity”.

Source of the values: patent US7220402B1, “Alpha-fetoprotein peptides and uses for imaging” (Ordway Research Institute, Inc., priority 2001, dated 2007).
